This is an account of results in patent publication US9873680B2 (Gilead Sciences, Inc., priority 2014, dated 2018).

The nature of data set [1]: Test B: Cytotoxicity Assay. The class given is cell-based. As to conditions: human, uninfected MT-4 cells, CellTiter-Glo. As to the method:
Test B: Cytotoxicity Assay Compound cytotoxicity and the corresponding CC50 values was determined using the same protocol as described in the antiviral assay (Test A) except that uninfected cells were used.

Data set [2] has as its system HIV-IIIb. The experiment in a line: Test A: Antiviral Assay in MT4 Cells. Type of data set: cell-based, HIV-1. As to conditions: for inhibition at 2 µM: 2 μM drug concentration, read-out: Response at 2 μM (percent inhibition of virus-induced cell killing). As for the experimental part: Test A: Antiviral Assay in MT4 Cells
MT-4 cells were next mixed with HIV-IIIb at an m.o.i of 0.003 for 1 hour, after which time 35 μL of virus/cell mixture (2000 cells) was immediately added to each well containing 40 μL of diluted compound. The plates were then incubated at 37° C. for 5 days. After 5 days of incubation, 25 μl of 2× concentrated CellTiter-Glo™ Reagent (catalog #G7571, Promega Biosciences, Inc., Madison, Wis.) was added to each well containing MT-4 cells. Cell lysis was carried out by incubating at room temperature for 10 min and then chemiluminescence was read.

The mark [3] stands for this setting: Human immunodeficiency virus 1, MT4, 120 h, 0.2 μM drug concentration, MT-4 cells infected with HIV-IIIb, 5 days, values normalized to 100%, average over time, read-out: % inhibition at 0.2 μM (percent inhibition of virus-induced cell killing).
Where [4] appears, read: Human immunodeficiency virus 1, IIIB, MT4, 0.2 μM drug concentration, comparison with previously published compounds, read-out: Response at 0.2 μM (percent inhibition of virus-induced cell killing).
Setting [5] is: Human immunodeficiency virus 1, IIIB, MT4, comparison with previously published compounds.
[6] abbreviates: Human immunodeficiency virus 1, IIIB, MT4, 120 h, read-out: % inhibition at 0.2 μM (percent inhibition of virus-induced cell killing).

Where a name gives a salt, the structure may show the parent alone. Read-outs that look alike come from different tables or passages of the source.

With `O=C(Cn1nc(C(F)F)c2c1C(F)(F)CCC2(F)F)N[C@@H](Cc1cc(F)cc(F)c1)c1nc(C#Cc2cncnc2)ccc1-c1ccc2c(c1)C(=O)NC2` [Compound 1J, (S)-2-(3-(difluoromethyl)-4,4,7,7-tetrafluoro-4,5,6,7-tetrahydro-1H-indazol-1-yl)-N-(2-(3,5-difluorophenyl)-1-(3-(3-oxoisoindolin-5-yl)-6-(pyrimidin-5-ylethynyl)pyridin-2-yl)ethyl)acetamidehydrochloride], the CC50 at 5 days in data set [1] is > 53.2 µM. Moreover, the inhibition at 0.2 µM in data set [2] (setting [3]) came out at 81%.

Compound `O=C(Cn1nc(C(F)F)c2c1C(F)(F)CCC2(F)F)N[C@@H](Cc1cc(F)cc(F)c1)c1ncc(C#CC2CC2)cc1-c1ccc2c(c1)C(=O)NC2` [Compound 2G, (S)—N-(1-(5-(cyclopropylethynyl)-3-(3-oxoisoindolin-5-yl)pyridin-2-yl)-2-(3,5-difluorophenyl)ethyl)-2-(3-(difluoromethyl)-4,4,7,7-tetrafluoro-4,5,6,7-tetrahydro-1H-indazol-1-yl)acetamide] had a CC50 at 5 days in data set [1] of 38.4 µM. In addition, the inhibition at 0.2 µM in data set [2] (setting [4]) and in data set [2] (setting [3]) was 0% throughout. Further, the inhibition at 2 µM in data set [2] (setting [5]) was determined as 6%.

`Cc1cc2ncn(CC(=O)N[C@@H](Cc3cc(F)cc(F)c3)c3nc(C#CC4(O)CCOCC4)ccc3-c3ccc4n[nH]c(=O)n4c3C)c2cc1C` [Compound 3D, (S)—N-(2-(3,5-difluorophenyl)-1-(6-((4-hydroxytetrahydro-2H-pyran-4-yl)ethynyl)-3-(5-methyl-3-oxo-2,3-dihydro-[1,2,4]triazolo[4,3-a]pyridin-6-yl)pyridin-2-yl)ethyl)-2-(5,6-dimethyl-1H-benzo[d]imidazol-1-yl)acetamide] displayed a cytotoxic concentration (CC50) at 5 days in data set [1] of 31.6 µM. In addition, the inhibition at 0.2 µM in data set [2] (setting [3]) worked out at 91%.

Consider `O=C(Cn1nc(C(F)F)c2c1C(F)(F)CCC2(F)F)N[C@@H](Cc1cc(F)cc(F)c1)c1nc(C#Cc2cnc3[nH]ccc3c2)ccc1-c1cnc2[nH]ccc2c1` [Compound 4C, (S)—N-(1-(6-((1H-pyrrolo[2,3-b]pyridin-5-yl)ethynyl)-3-(1H-pyrrolo[2,3-b]pyridin-5-yl)pyridin-2-yl)-2-(3,5-difluorophenyl)ethyl)-2-(3-(difluoromethyl)-4,4,7,7-tetrafluoro-4,5,6,7-tetrahydro-1H-indazol-1-yl)acetamide], for which the CC50 at 5 days in data set [1] was found to be 1.27 µM. The inhibition at 0.2 µM in data set [2] (setting [3]) was 0%.

For `O=C(Cn1nc(C(F)F)c2c1C(F)(F)CCC2(F)F)N[C@@H](Cc1cc(F)cc(F)c1)c1nc(C#Cc2ccc3[nH]c(=O)ccc3c2)ccc1-c1cnc2[nH]ccc2c1` [Compound 5, (S)-2-(3-(difluoromethyl)-4,4,7,7-tetrafluoro-4,5,6,7-tetrahydro-1H-indazol-1-yl)-N-(2-(3,5-difluorophenyl)-1-(6-((2-oxo-1,2-dihydroquinolin-6-yl)ethynyl)-3-(1H-pyrrolo[2,3-b]pyridin-5-yl)pyridin-2-yl)ethyl)acetamide], the CC50 at 5 days in data set [1] is > 53.2 µM. For the same compound, in data set [2] (setting [3]), the inhibition at 0.2 µM was 5%.

In data set [1], `O=C(Cn1nc(C(F)F)c2c1C(F)(F)CCC2(F)F)N[C@@H](Cc1cc(F)cc(F)c1)c1nc(C#Cc2cncnc2)ccc1-c1ccc2c(c1)C(=O)NC21CC1` [Compound 6, (S)-2-(3-(difluoromethyl)-4,4,7,7-tetrafluoro-4,5,6,7-tetrahydro-1H-indazol-1-yl)-N-(2-(3,5-difluorophenyl)-1-(3-(3′-oxospiro[cyclopropane-1,1′-isoindolin]-5′-yl)-6-(pyrimidin-5-ylethynyl)pyridin-2-yl)ethyl)acetamide] registered a CC50 at 5 days of 1.66 µM. The inhibition at 0.2 µM in data set [2] (setting [3]) is 0%.

The compound `O=C(Cn1nc(C(F)F)c2c1C(F)(F)CCC2(F)F)N[C@@H](Cc1cc(F)cc(F)c1)c1nc(C#Cc2cncnc2)ncc1-c1ccc2c(c1)C(=O)NC2` [Compound 7H] displayed a CC50 at 5 days in data set [1] of 0.534 µM. In addition, the inhibition at 0.2 µM in data set [2] (setting [6]) amounted to 94%.

Turning to `O=C(Cn1nc(C(F)F)c2c1C(F)(F)CCC2(F)F)N[C@@H](Cc1cc(F)cc(F)c1)c1nc(C#Cc2ccccc2)ncc1-c1ccc2c(c1)C(=O)NC2` [Compound 8, (S)-2-(3-(difluoromethyl)-4,4,7,7-tetrafluoro-4,5,6,7-tetrahydro-1H-indazol-1-yl)-N-(2-(3,5-difluorophenyl)-1-(5-(3-oxoisoindolin-5-yl)-2-(phenylethynyl)pyrimidin-4-yl)ethyl)acetamide], the CC50 at 5 days in data set [1] was > 53.2 µM. For the same compound, in data set [2] (setting [6]), the inhibition at 0.2 µM amounted to 102%.

Consider `N#Cc1ccc(C#Cc2ccc(-c3ccc4c(c3)C(=O)NC4)c([C@H](Cc3cc(F)cc(F)c3)NC(=O)Cn3nc(C(F)(F)F)c4c3C(F)(F)[C@@H]3C[C@H]43)n2)cc1` [Compound 9, N—((S)-1-(6-((4-cyanophenyl)ethynyl)-3-(3-oxoisoindolin-5-yl)pyridin-2-yl)-2-(3,5-difluorophenyl)ethyl)-2-((3bS,4aR)-5,5-difluoro-3-(trifluromethyl)-3b,4,4a,5-tetrahydro-1H-cyclopropa[3,4]cyclopenta[1,2-c]pyrazol-1-yl)acetamide], for which, in data set [1], the CC50 at 5 days is > 53.2 µM. Besides, the inhibition at 0.2 µM in data set [2] (setting [3]) amounted to 25%.

Turning to `COc1ccc(C#Cc2ccc(-c3ccc4c(c3)C(=O)NC4)c([C@H](Cc3cc(F)cc(F)c3)NC(=O)Cn3nc(C(F)(F)F)c4c3C(F)(F)[C@@H]3C[C@H]43)n2)cn1` [Compound 10C, 2-((3bS,4aR)-5,5-difluoro-3-(trifluoromethyl)-3b,4,4a,5-tetrahydro-1H-cyclopropa[3,4]cyclopenta[1,2-c]pyrazol-1-yl)-N—((S)-2-(3,5-difluorophenyl)-1-(6-((6-methoxypyridin-3-yl)ethynyl)-3-(3-oxoisoindolin-5-yl)pyridin-2-yl)ethyl)acetamide], in data set [1], the half-maximal cytotoxic concentration (CC50) at 5 days is > 51.9 µM. For the same compound, the inhibition at 0.2 µM in data set [2] (setting [3]) was determined as 21%.

As for `Cc1cc(C#Cc2ncc(-c3ccc4c(c3)C(=O)NC4)c([C@H](Cc3cc(F)cc(F)c3)NC(=O)Cn3nc(C(F)F)c4c3C(F)(F)CCC4(F)F)n2)ccn1` [Compound 11, (S)-2-(3-(difluoromethyl)-4,4,7,7-tetrafluoro-4,5,6,7-tetrahydro-1H-indazol-1-yl)-N-(2-(3,5-difluorophenyl)-1-(2-((2-methylpyridin-4-yl)ethynyl)-5-(3-oxoisoindolin-5-yl)pyrimidin-4-yl)ethyl)acetamide], in data set [1], the CC50 at 5 days turned out to be 0.761 µM. Further, the inhibition at 0.2 µM in data set [2] (setting [3]) was found to be 69%.

The compound `O=C(Cn1nc(C(F)(F)F)c2c1C(F)(F)[C@@H]1C[C@H]21)N[C@@H](Cc1cc(F)cc(F)c1)c1nc(C#Cc2ccc(=O)[nH]c2)ccc1-c1ccc2c(c1)C(=O)NC2` [Compound 12, 2-((3bS,4aR)-5,5-difluoro-3-(trifluoromethyl)-3b,4,4a,5-tetrahydro-1H-cyclopropa[3,4]cyclopenta[1,2-c]pyrazol-1-yl)-N—((S)-2-(3,5-difluorophenyl)-1-(6-((6-oxo-1,6-dihydropyridin-3-yl)ethynyl)-3-(3-oxoisoindolin-5-yl)pyridin-2-yl)ethyl)acetamide] registered a CC50 at 5 days in data set [1] of 7.7 µM. For the same compound, in data set [2] (setting [3]), the inhibition at 0.2 µM came to 70%.

For the compound `CC(C)(C)OC(=O)N1CCCC1c1ncc(C#Cc2ccc(-c3ccc4c(c3)C(=O)NC4)c([C@H](Cc3cc(F)cc(F)c3)NC(=O)Cn3nc(C(F)(F)F)c4c3C(F)(F)[C@@H]3C[C@H]43)n2)[nH]1` (stereo partly drawn) [Compound 13C, tert-butyl 2-(5-((6-((S)-1-(2-((3bS,4aR)-5,5-difluoro-3-(trifluoromethyl)-3b,4,4a,5-tetrahydro-1H-cyclopropa[3,4]cyclopenta[1,2-c]pyrazol-1-yl)acetamido)-2-(3,5-difluorophenyl)ethyl)-5-(3-oxoisoindolin-5-yl)pyridin-2-yl)ethynyl)-1H-imidazol-2-yl)pyrrolidine-1-carboxylate], the CC50 at 5 days in data set [1] was > 53.2 µM. The inhibition at 0.2 µM in data set [2] (setting [3]) was 87%.

Turning to `CC(C)(O)C#Cc1ccc(-c2ccc(F)c(C(N)=O)c2)c([C@H](Cc2cc(F)cc(F)c2)NC(=O)Cn2nc(C(F)(F)F)c3c2C(F)(F)[C@@H]2C[C@H]32)n1` [Compound 18, reference compound], the inhibition at 0.2 µM in data set [2] (setting [4]) amounted to 96%. Also, in data set [2] (setting [5]), the inhibition at 2 µM is 96%.

Regarding `O=C(Cc1c[nH]c2ccc(O)cc12)N[C@@H](Cc1cc(F)cc(F)c1)c1ncccc1C#CC1CC1` [Compound 53, reference compound], the inhibition at 0.2 µM in data set [2] (setting [4]) stood at 0%. Also, in data set [2] (setting [5]), the inhibition at 2 µM turned out to be 33%.

Take `Cn1nc(NS(C)(=O)=O)c2c(Cl)ccc(-c3ccc(C#CC4(O)CC(F)(F)C4)nc3[C@H](Cc3cc(F)cc(F)c3)NC(=O)Cn3nc(C(F)F)c4c3C(F)(F)[C@@H]3C[C@H]43)c21` [Compound 95E, N—((S)-1-(3-(4-chloro-1-methyl-3-(methylsulfonamido)-1H-indazol-7-yl)-6-((3,3-difluoro-1-hydroxycyclobutyl)ethynyl)pyridin-2-yl)-2-(3,5-difluorophenyl)ethyl)-2-((3bS,4aR)-3-(difluoromethyl)-5,5-difluoro-3b,4,4a,5-tetrahydro-1H-cyclopropa[3,4]cyclopenta[1,2-c]pyrazol-1-yl)acetamide]: the inhibition at 0.2 µM in data set [2] (setting [6]) is 96%.
